Assay [1] relates to Ba/F3 KIF5B-RET (V804M) cells. The assay can be described thus: Cell proliferation inhibition, CellTiter-Glo. It counts as cell-based. As to conditions: Mus musculus, BaF3, 72 hours. As for the experimental part:
(§1) Among lung cancer cell lines, which express RET fusion genes, LC-2/ad cells were cultured after adding 10% FBS (HyClone) to RPMI:F12 (1:1) (Invitrogen), and F-12 (Invitrogen) supplemented with 10% FBS was used for TT cells. RPMI-1640 supplemented with 10% FBS and 5 ng/ml IL-3 (R&D Systems) was used for Ba/F3 cells. Transduced Ba/F3 cells were cultured by adding 1 ug/ml puromycin (Invitrogen) to the same medium. 24 hours before cells were treated with the compound, 3000 to 5000 cells were aliquoted into each well of a white clear bottom 96 well plate (Corning). The compound was diluted in DMSO (3-fold dilution, a total of 12 concentrations) and the compound was injected by 0.5 μl such that the final concentration was 0.3 nM to 50 μM. For the measurement of living cells, 72 hours after the compound treatment, the cells were stored at room temperature for 10 minutes using a CellTiter-Glo luminescent cell-viability agent (Promega), and then the luminescence intensity was measured using a reader (SynergyNeo, Biotek). Each experiment was repeated in triplicate. The result value was calculated by the cell growth ratio (%) compared to the control. A graph was drawn using the GraphPad Prism version 5.0 program, and a GI50 (nM) value was calculated.
(§2) In the cell assay column, LC-2/ad (with CCDC6-RET gene) is a lung cancer cell line, a TT cell line ([…]) is a thyroid cancer cell line, Ba/F3 CCDC6-RET (WT), Ba/F3 KIF5B-RET (WT), and Ba/F3 KIF5B-RET (V804M) are cells in which disease-related traits (CCDC6-RET, KIF5B-RET, and KIF5B-RET (V804M)) are introduced into Ba/F3 cells, and Ba/F3 (naive) is a cell which is not transduced.

The next assay has as its system Ba/F3 (naive) cells. The assay can be described thus: Cell proliferation inhibition, CellTiter-Glo. In kind it is cell-based. As to conditions: Mus musculus, BaF3; Ba/F3 not transduced, 72 hours. As for the experimental part: as §1, §2
Assay [2] relates to Ba/F3 CCDC6-RET (WT) cells. The assay can be described thus: Cell proliferation inhibition, CellTiter-Glo. In kind it is cell-based. The following applies: BaF3/CCDC6-RET, 72 hours. As for the experimental part: as §1, §2
Assay [3] relates to Ba/F3 KIF5B-RET (WT) cells. The assay can be described thus: Cell proliferation inhibition, CellTiter-Glo. It counts as cell-based. The following applies: Mus musculus, BaF3, 72 hours. How it is done: as §1, §2
A further assay has as its target T1, RET (WT) (Homo sapiens, UniProt P07949).
T1 construct: human RET (658-end, SIGNALCHEM); purchased SIGNALCHEM
T1 sequence (P07949 658-1114 limits assumed): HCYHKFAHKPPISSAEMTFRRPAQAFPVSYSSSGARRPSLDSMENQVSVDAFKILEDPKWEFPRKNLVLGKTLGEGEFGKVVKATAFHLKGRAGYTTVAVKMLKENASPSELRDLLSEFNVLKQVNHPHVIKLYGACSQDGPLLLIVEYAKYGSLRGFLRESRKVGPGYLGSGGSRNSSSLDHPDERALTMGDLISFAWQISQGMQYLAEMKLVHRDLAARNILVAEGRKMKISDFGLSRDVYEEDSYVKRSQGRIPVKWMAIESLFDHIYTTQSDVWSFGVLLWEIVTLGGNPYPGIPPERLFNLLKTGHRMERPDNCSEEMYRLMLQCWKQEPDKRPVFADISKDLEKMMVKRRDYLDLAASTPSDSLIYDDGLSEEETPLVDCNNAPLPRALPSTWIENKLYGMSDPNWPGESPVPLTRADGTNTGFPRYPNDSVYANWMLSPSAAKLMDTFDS
The assay can be described thus: RET enzyme inhibitory ability, ADP-Glo kinase assay. In kind it is biochemical. The following applies: ATP 10 μM, 25° C., 1 hour. How it is done:
The Example compound was reacted with a purified human RET (658-end, SIGNALCHEM) enzyme to evaluate the enzyme inhibitory ability by the following method. As a reaction buffer, a composition of 40 mM Tris-HCl pH 7.4, 20 mM MgCl2, 0.5 mg/mL BSA, and 50 μM DTT was used, and all experimental materials were reacted on the reaction buffer. After the human RET (658-end, 0.8 ng) enzyme was reacted with purified ATP (10 μM) and a specific substrate solution at 25° C. for 1 hour during the experiment, the enzyme activity was confirmed using in vitro ADP-Glo™ kinase assay (Promega). Luminescence was measured by reacting the enzyme activity reaction solution, the ADP-Glo reaction solution, and the enzyme activity detection solution at a ratio of 2:2:1. The degree of inhibition of enzyme activity according to the treatment concentration of each compound was calculated based on the […] of the enzyme activity of a solvent control group in which a compound was not treated, and in this case, the concentration of each compound which suppresses the […] enzyme activity by 50% was determined as an IC50 (nM) value. The IC50 (nM) of each compound was determined by 3 datasets and obtained using Prism (version 7.01, GraphPad) software.
In the enzyme assay column, RET (WT) is a non-mutated form, RET (V804M) is a mutated form in which the V amino acid at position 804 of the RET is substituted with M, and CCDC6-RET is a form in which the RET (WT) gene and CCDC6 gene are fused.
In general terms: In ADP-Glo the light output rises with the ADP produced.

This passage reports GI50 and IC50 results from patent US12281121B2, “N-containing heteroaryl derivative and pharmaceutical composition comprising same as active ingredient for prevention or treatment of cancer” (VORONOI Inc., priority 2019, dated 2025).

For orientation: GI50 means the concentration that inhibits growth by half. For orientation: IC50 means the concentration that inhibits the measured activity by half. Low values mean greater potency in that assay, high ones weaker potency in that assay.

Take `COc1ccc(CN2C(C)CN(c3ccc(-c4nc(Nc5cc(C)[nH]n5)c5ccccc5n4)cn3)C[C@H]2C)cn1` (stereo in doubt) [Example 35, 2-(6-((3R,5S)-4-((6-methoxy-pyridin-3-yl)methyl)-3,5-dimethyl-piperazin-1-yl)pyridin-3-yl)-N-(5-methyl-1H-pyrazol-3-yl)quinazolin-4-amine]: the GI50 in assay [1] was determined as 328 nM.
On to `Cc1cc(Nc2nc(-c3ccc(N4CC5CC(C4)N5Cc4ncc(C)s4)nc3)nc3ccccc23)n[nH]1` [Example 5, N-(5-methyl-1H-pyrazol-3-yl)-2-(6-(6-((5-methylthiazol-2-yl)methyl)-3,6-diazabicyclo [3.1.1]heptan-3-yl)pyridin-3-yl)quinazolin-4-amine], for which the GI50 in assay [1] was 4 nM; in the assay with Ba/F3 (naive) cells, 1060 nM; in assay [2], 41 nM; in assay [3], 7 nM. Inhibition against RET (WT) was half-maximal at 18 nM (IC50).
The like results for `COc1ccc(CN2CC3CC(C2)N3c2ccc(-c3nc(Nc4cc(C)[nH]n4)c4ccccc4n3)cn2)cn1` [Example 6, 2-(6-(3-((6-methoxypyridin-3-yl)methyl)-3,6-diazabicyclo [3.1.1]heptan-6-yl)pyridin-3-yl)-N-(5-methyl-1H-pyrazol-3-yl)quinazolin-4-amine] were, in that order, 70 nM, 9220 nM, 166 nM, 67 nM and 27 nM.
Taken in the same sequence, the figures for `Cc1cc(Nc2nc(-c3ccc(N4CC5CC(C4)N5Cc4ccc(C(F)(F)F)nc4)nc3)nc3ccccc23)n[nH]1` [Example 8, N-(5-methyl-1H-pyrazol-3-yl)-2-(6-(6-((6-(tri-fluoromethyl)py-ridin-3-yl)meth-yl)-3,6-diaza-bicyclo[3.1.1]heptan-3-yl)pyridin-3-yl)quinazolin-4-amine] were 23 nM, 1980 nM, 51 nM, 12 nM and 32 nM.
For `Cc1cc(Nc2nc(-c3ccc(N4CC5CC(C4)N5Cc4ccc(C#N)nc4)nc3)nc3ccccc23)n[nH]1` [Example 9, 5-((3-(5-(4-((5-methyl-1H-py-razol-3-yl)amino)quinazolin-2-yl)pyridin-2-yl)-3,6-diazabicyclo [3.1.1]heptan-6-yl)methyl)pico-linonitrile], the GI50 is 23 nM in assay [1], 822 nM in the assay with Ba/F3 (naive) cells, 62 nM in assay [2] and 23 nM in assay [3]. Also, at RET (WT), the IC50 was 30 nM.
Consider `Cc1ccc(CN2C3CC2CN(c2ccc(-c4nc(Nc5cc(C)[nH]n5)c5ccccc5n4)cn2)C3)cn1` [Example 10], for which the GI50 was determined as 10 nM in assay [1], 920 nM in the assay on Ba/F3 (naive) cells, 39 nM in assay [2] and 9 nM in assay [3]. At RET (WT), this compound returned an IC50 of 10 nM.
As to `Cc1cc(Nc2nc(-c3ccc(N4CC5CC(C4)N5Cc4cc(F)c(OC(C)C)c(F)c4)nc3)nc3ccccc23)n[nH]1` [Example 11, 2-(6-(6-(3,5-difluoro-4-isopropoxy-benzyl)-3,6-diazabicyclo [3.1.1]heptan-3-yl)pyridin-3-yl)-N-(5-methyl-1H-pyrazol-3-yl)quinazolin-4-amine], the GI50 in assay [1] turned out to be 119 nM.
For `COc1ccc(CN2C3CC2CN(c2ccc(-c4nc(Nc5cc(C)[nH]n5)c5ccccc5n4)cn2)C3)cc1C#N` [Example 12, 2-methoxy-5-((3-(5-(4-((5-methyl-1H-pyrazol-3-yl)amino)quina-zolin-2-yl)pyridin-2-yl)-3,6-diazabicyclo [3.1.1]heptan-6-yl)methyl)benzo-nitrile], the GI50 in assay [1] stood at 49 nM; in the assay on Ba/F3 (naive) cells it was 2540 nM; in assay [2], 52 nM; in assay [3] it was 15 nM. Besides, the half-maximal inhibitory concentration (IC50) at RET (WT) was 38 nM.
In the case of `Cc1cc(Nc2nc(-c3ccc(N4CC5CC(C4)N5Cc4cnc[nH]4)nc3)nc3ccccc23)n[nH]1` [Example 13, 2-(6-(6-((1H-imidazol-5-yl)methyl)-3,6-diazabicyclo [3.1.1]heptan-3-yl)pyridin-3-yl)-N-(5-methyl-1H-pyrazol-3-yl)quinazolin-4-amine], the GI50 in assay [1] was determined as 2450 nM.
Regarding `COc1ccc(CN2C3CC2CN(c2ccc(-c4nc(Nc5cc(C)[nH]n5)c5ccccc5n4)cn2)C3)cc1` [Example 14, 2-(6-(6-(4-methoxybenzyl)-3,6-diaza-bicyclo[3.1.1]heptan-3-yl)pyridin-3-yl)-N-(5-methyl-1H-pyrazol-3-yl)quinazolin-4-amine], the GI50 in assay [1] worked out at 22 nM; in the assay on Ba/F3 (naive) cells, 2700 nM; in assay [2], 33 nM; in assay [3], 11 nM. The compound also came in with an IC50 at RET (WT) of 10 nM.
Regarding `Cc1cc(Nc2nc(-c3ccc(N4CC5CC(C4)N5Cc4ccc(OC(C)C)nc4)nc3)nc3ccccc23)n[nH]1` [Example 15, 2-(6-(6-((6-iso-propoxypyridin-3-yl)methyl)-3,6-diazabicyclo [3.1.1]heptan-3-yl)pyridin-3-yl)-N-(5-methyl-1H-pyrazol-3-yl)quinazolin-4-amine], the GI50 turned out to be 30 nM in assay [1], 3100 nM in the assay with Ba/F3 (naive) cells, 75 nM in assay [2] and 24 nM in assay [3]. This compound also returned an IC50 against RET (WT) of 40 nM.
With `Cc1cc(Nc2nc(-c3ccc(N4CC5CC(C4)N5Cc4ccc(NS(C)(=O)=O)cc4)nc3)nc3ccccc23)n[nH]1` [Example 21, N-(4-((3-(5-(4-((5-methyl-1H-pyrazol-3-yl)a-mino)quinazolin-2-yl)pyridin-2-yl)-3,6-diazabicyclo [3.1.1]heptan-6-yl)methyl)phenyl) methane-sulfonamide], the GI50 in assay [1] was 117 nM.
Same read-out and setting: then `Cc1cc(Nc2nc(-c3ccc(N4CC5CC(C4)N5Cc4ccn(C)c(=O)c4)nc3)nc3ccccc23)n[nH]1` [Example 27, 1-methyl-4-((3-(5-(4-((5-methyl-1H-pyrazol-3-yl)amino)quina-zolin-2-yl)pyridin-2-yl)-3,6-diazabicyclo [3.1.1]heptan-6-yl)methyl)pyri-din-2(1H)-one], with 159 nM; and `COc1ccc(CN2C[C@H](C)N(c3ccc(-c4nc(Nc5cc(C)[nH]n5)c5ccccc5n4)cn3)C[C@H]2C)cn1` [Example 28, 2-(6-((2S,5R)-4-((6-methoxy-pyridin-3-yl)methyl)-2,5-di-methylpiperazin-1-yl)pyridin-3-yl)-N-(5-methyl-1H-pyrazol-3-yl)quinazolin-4-amine], with 321 nM.
As to `COc1ccc(CN2C[C@@H](C)N(c3ccc(-c4nc(Nc5cc(C)[nH]n5)c5ccccc5n4)cn3)C[C@@H]2C)cn1` [Example 32], the GI50 in assay [1] amounted to 239 nM.
For the compound `COc1ccc(CN2CCN(c3ccc(-c4nc(Nc5cc(C)[nH]n5)c5ccccc5n4)cn3)C[C@@H]2C)cn1` [Example 33, (S)-2-(6-(4-((6-methoxypyridin-3-yl)methyl)-3-methylpiperazin-1-yl)pyridin-3-yl)-N-(5-methyl-1H-pyrazol-3-yl)quinazolin-4-amine], in assay [1], the GI50 was 121 nM.
